The target of experiment [1] is T1, hTLR8 (human Toll-like receptor 8) (Homo sapiens, UniProt Q9NR97).
T1 construct: host or cells: HEK-Blue hTLR8 (HEK293-derived reporter cells)
T1 sequence (Q9NR97 27-1041): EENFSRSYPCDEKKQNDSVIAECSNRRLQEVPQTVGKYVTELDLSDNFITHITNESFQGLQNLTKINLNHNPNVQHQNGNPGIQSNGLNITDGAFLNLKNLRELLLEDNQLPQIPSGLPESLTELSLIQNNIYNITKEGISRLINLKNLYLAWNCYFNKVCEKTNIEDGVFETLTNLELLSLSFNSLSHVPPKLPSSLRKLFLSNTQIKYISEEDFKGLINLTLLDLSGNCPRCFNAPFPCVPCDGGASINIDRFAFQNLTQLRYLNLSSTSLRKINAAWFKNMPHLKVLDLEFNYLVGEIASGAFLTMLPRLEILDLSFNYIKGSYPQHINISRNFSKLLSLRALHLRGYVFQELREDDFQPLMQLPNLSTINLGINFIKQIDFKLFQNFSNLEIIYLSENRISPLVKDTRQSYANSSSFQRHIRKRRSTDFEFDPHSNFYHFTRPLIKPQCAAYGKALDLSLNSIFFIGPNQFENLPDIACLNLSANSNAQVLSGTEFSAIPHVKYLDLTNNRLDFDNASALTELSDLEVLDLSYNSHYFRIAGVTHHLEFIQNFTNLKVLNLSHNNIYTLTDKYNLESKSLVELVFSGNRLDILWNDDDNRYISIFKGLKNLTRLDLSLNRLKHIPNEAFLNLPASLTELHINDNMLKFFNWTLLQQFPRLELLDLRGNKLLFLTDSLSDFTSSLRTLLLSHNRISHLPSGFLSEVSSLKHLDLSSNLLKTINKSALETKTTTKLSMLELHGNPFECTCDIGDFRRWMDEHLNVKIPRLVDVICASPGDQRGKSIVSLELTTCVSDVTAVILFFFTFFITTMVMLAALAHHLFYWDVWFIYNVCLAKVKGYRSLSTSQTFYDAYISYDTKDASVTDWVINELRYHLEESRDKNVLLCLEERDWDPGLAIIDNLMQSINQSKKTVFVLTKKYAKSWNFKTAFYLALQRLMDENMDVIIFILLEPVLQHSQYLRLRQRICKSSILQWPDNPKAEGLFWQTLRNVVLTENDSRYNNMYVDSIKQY
In words: HEK-Blue hTLR8 reporter assay (QUANTI-Blue, OD650). It counts as cell-based. The note with it: HEK-Blue hTLR8 cells, 24 h, read-out: Reporter assay TLR8 EC50. The method, then: (§1) In this example, the agonistic activity of the compounds of the present application on hTLR7 (human Toll-like receptor 7) and hTLR8 (human Toll-like receptor 8) was assessed; the induction activity of the compounds on human PBMCs for TNF-α and IFN-α production was assessed in human PBMCs (human peripheral blood mononuclear cells).
(§2) All compounds were formulated in DMSO into 30 mM stock solutions and preserved at 4° C. The reference compound ([…], Cat. No. tlrl-r848-5) was purchased from InvivoGen and formulated into a 5 mg/mL stock solution in DMSO and preserved in a freezer at −20° C. HEK-Blue hTLR7 and HEK-Blue hTLR8 cell lines were purchased from InvivoGen, and human PBMCs were purchased from Shanghai Saily Biotechnology Co., Ltd. (Cat. No. XFB—HP100B).
(§3) The major instruments used in this study were multifunctional microplate reader Flexstation III (Molecular Device), Envision (Perkin Elmer), M2e (Molecular Device), and Echo555 (Labcyte). 2.1 Agonistic activity of compounds on hTLR7 (human Toll-like receptor 7) and hTLR8 (human Toll-like receptor 8)
(§4) Compound dilution: The compounds of the present application are diluted in DMSO, for example, to about 15 mM. The reference compound was added to the plates in sequence after dilution. The compounds were serially 3-fold diluted to 10 concentrations and added to 96-well plates in duplicate.
(§5) For the negative control wells, DMSO was added at 0.2 μL/well, and the reference compound was added to the positive control wells. The final concentration of DMSO was 0.2%.
(§6) Cell plating: When an 80% confluence of HEK Blue hTLR7&8 cells in the culture flask was observed under a microscope, the culture medium was discarded, 10 mL of detection medium was added, and the cells were separated by pipetting. The cells were counted on a cytometer and diluted to 500,000 cells/mL. The cells were plated at 100 μL/50,000 cells/well in the 96-well plates containing the compounds. The compounds and cells were co-incubated at 37° C. in a 5% CO2 incubator for 24 hours.
(§7) Compound activity detection: 20 μL of cell supernatant was taken from each well and added to a plate containing QUANTI-Blue™ reagent at 180 μL/well. The plate was incubated at 37° C. for 1 hour, and the absorbance at 650 nm (OD650) was measured on the multifunctional microplate reader Flexstation III.
(§8) Compound activity data analysis: The OD650 values were analyzed by GraphPad Prism software and fitted to give dose-response curves of the compounds. The EC50 values of compounds were calculated.

The target in experiment [2] is T2, hTLR7 (human Toll-like receptor 7) (Homo sapiens, UniProt Q9NYK1).
T2 construct: host or cells: HEK-Blue hTLR7 (HEK293-derived reporter cells)
T2 sequence (Q9NYK1 27-1049): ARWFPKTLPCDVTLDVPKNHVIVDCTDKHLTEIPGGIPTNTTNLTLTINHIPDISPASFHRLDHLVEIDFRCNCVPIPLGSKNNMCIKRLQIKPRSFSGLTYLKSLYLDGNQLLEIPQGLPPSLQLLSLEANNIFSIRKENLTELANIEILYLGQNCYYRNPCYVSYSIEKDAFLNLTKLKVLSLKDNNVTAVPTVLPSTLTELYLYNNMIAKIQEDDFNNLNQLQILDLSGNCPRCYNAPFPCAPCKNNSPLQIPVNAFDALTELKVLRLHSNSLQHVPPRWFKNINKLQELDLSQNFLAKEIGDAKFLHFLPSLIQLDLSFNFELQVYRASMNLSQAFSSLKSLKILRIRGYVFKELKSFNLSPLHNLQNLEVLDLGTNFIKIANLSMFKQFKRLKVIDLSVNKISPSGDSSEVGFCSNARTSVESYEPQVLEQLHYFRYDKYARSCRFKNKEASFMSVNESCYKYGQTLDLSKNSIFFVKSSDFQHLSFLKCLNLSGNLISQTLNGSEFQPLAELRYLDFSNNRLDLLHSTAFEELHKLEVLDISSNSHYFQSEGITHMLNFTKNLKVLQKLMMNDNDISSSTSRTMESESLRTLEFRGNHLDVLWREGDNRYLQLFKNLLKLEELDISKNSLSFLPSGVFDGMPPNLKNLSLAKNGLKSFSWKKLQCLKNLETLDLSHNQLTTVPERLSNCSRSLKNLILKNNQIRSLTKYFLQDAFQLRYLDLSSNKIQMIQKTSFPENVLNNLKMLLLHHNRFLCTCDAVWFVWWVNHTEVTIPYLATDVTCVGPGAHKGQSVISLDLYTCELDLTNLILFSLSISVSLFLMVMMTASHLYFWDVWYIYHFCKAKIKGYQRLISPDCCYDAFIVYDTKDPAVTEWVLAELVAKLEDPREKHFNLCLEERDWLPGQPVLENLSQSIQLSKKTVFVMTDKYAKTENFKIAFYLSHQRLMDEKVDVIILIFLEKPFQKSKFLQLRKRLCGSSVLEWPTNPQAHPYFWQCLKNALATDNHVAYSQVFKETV
In words: HEK-Blue hTLR7 reporter assay (QUANTI-Blue, OD650). It counts as cell-based. The note with it: HEK-Blue hTLR7 cells, 24 h, read-out: Reporter assay TLR7 EC50. As to the method:
as §1, §2, §3, §4, §5, §6, §7, §8

We go through 3 compounds from patent US20250059141A1, “TLR MODULATOR AND USE THEREOF” (DUALITY BIOLOGICS (SUZHOU) CO., LTD., priority 2021, published 2025).

Each structure is given as a SMILES string. Like-named read-outs stand apart in the source and are kept apart here.

In the case of `CCCN(OCc1ccc(N)cc1)C(=O)C1=Cc2ccc(C(=O)N3CCOCC3)cc2N=C(N)C1` [Compound 39], the EC50 stood at 2.8 nM in experiment [1] and 3550 nM in experiment [2].

For the compound `CCCN(OCc1ccc(N)cc1)C(=O)C1=Cc2ccc(C(=O)N3CC[C@@H](O)C3)cc2N=C(N)C1` [Compound 46A], the EC50 was 10 to 100 nM in experiment [1] (class symbols) and > 1000 nM in experiment [2] (class symbols).

For `CCCN(OCc1ccc(N)cc1)C(=O)C1=Cc2ccc(C(=O)N3CC[C@H](O)C3)cc2N=C(N)C1` [Compound 46B], the 50% effective concentration (EC50) in experiment [1] (class symbols) was 10 to 100 nM; in experiment [2] (class symbols), > 1000 nM.

The EC50 is the concentration that produces a half-maximal response.
